Series [1] concerns MWCL-1/BR. The series is described as follows: MTS viability assay, MWCL-1/BR. The series is classed as cell-based, human. The settings on record: 72-h MTS assay, MWCL-1B/BR. How it is done: (§1) Twenty thousand cells/200 μl in quadruplicates were incubated with serially diluted b-AP15 (1-1000 nmol/l) in 96-well plates at 37° C. for 72 hours. MTS (3-(4,5-dimethylthiazol-2-yl)-5-(3-carboxymethoxyphenyl)-2-(4-sulfophenyl)-2H-tetrazolium) reagent (Molecular Probes, Eugene, Oreg.) was added at 40 μl/well and the plates were further incubated at 37° C. for 3 hours and the developed color was read at 490 nm using a BioTek synergy HT plate reader against blanks with no cells.

Series [2] deals with RPCI-WM1/BR. The series is described as follows: MTS viability assay, RPCI-WM1/BR. The series is classed as cell-based, human. To be noted: 72-h MTS assay. How it is done: as §1
In general terms: Tetrazolium dyes change colour on reduction, which living cells bring about.

Series [3] concerns the target T1, proteasome b2 subunit (trypsin-like activity) (Homo sapiens, UniProt Q99436).
T1 construct: Cells were lysed at 4×10^6 cells/ml in proteasomal activity assay buffer; endogenous in cells; host or cells: BCWM.1 and BCWM.1/BR (lysates)
Kind of series: Proteasomal activity assay, trypsin-like (LRR-AMC), WM cells. To be noted: 10 nM; BCWM.1 and BCWM.1/BR shown. Format: biochemical. The procedure: FIGS. 17A-17D are a series of graphs plotting the effects of bortezomib (10 nM), carfilzomib (10 nM) and b-AP15 (10 nM) on caspase-like and trypsin-like proteasomal activities, as assessed in three WT and three BR WM cell lines in vitro using the fluorogenic substrates LLE-AMC (caspase-like activity) and LRR-AMC (trypsin-like activity). Reactions were incubated at 37° C. for 1 hour and the fluorescence was measured at 360/460 and expressed as relative fluorescence units (RFU), using BioTek synergy HT plate reader. Data from two representative cell lines (BCWM.1 and its BR subclone) are shown.
Cells were lysed at 4×10^6 cells/ml in proteasomal activity assay buffer [assay buffer; 25 mmol/1 HEPES buffer, pH7.5 containing 0.5 mmol/1 EDTA, 0.05% Nonidet P-40, 0.01% sodium dodecyl sulfate (SDS)] and immediately used in the assay. Enzyme reactions were performed in 96-well plates with 100 μl of final volume containing […] fluorogenic peptide substrates. The substrates used were LLVY-AMC for chymotrypsin like activity, LLE-AMC for caspase-like activity and LRR-AMC for trypsin-like activity. Reactions were incubated at 37° C. for 1 hour and fluorescence was measured at 360/460 using a BioTek synergy HT plate reader (BioTek, Winooski, Vt.).

Series [4] deals with WM cell lines (WT and BR). The series is described as follows: Annexin-V apoptosis assay, WM cell lines. Format: cell-based, human. To be noted: 0.64 μmol/l, 12 hours. The procedure: (§2) FIGS. 12A-12D are a series of graphs and Western blots showing b-AP15 induction of tumor-specific apoptosis in WM cell lines and primary patient-derived WM cells. FIG. 12A is a graph plotting cell death as a percentage of control cell death for all available WM cell lines (n=6, WT and BR derivatives) after treatment with the indicated concentrations of b-AP15, followed by staining with annexin-V and propidium iodide and then flow cytometry to examine apoptosis. […] Each experiment was conducted a minimum of three times with control cells (no drug treatment) showing a viability ([…] and propidium iodide-negative population) of >85%. Following treatment, the percentage of cells affected by b-AP15 was calculated by normalizing data from treated cells relative to the control (untreated) cells. […]
(§3) Apoptosis was measured using the Annexin V binding assay kit from BD Biosciences according to the manufacturer's instructions. […] Fluorescein isothiocycanate (FITC)-labelled Annexin V (5 μl) and propidium iodide (10μ were added to each sample and incubated in the dark for 15 minutes at room temperature. The cells were subsequently analyzed by flow cytometry using BD Accuri, the C6 flow cytometer and its software. Data from 10,000 events per sample were collected and analyzed.

In series [5] the test system is CD19+/CD138+ WM cells from human patients. The series is described as follows: Annexin-V apoptosis assay, primary patient-derived WM cells. Format: cell-based. The procedure:
as §2, §3

The test system of series [6] is WT and BR WM cells. Kind of series: Mitochondrial outer membrane permeability (TMRM), WM cell lines. The series is classed as cell-based, human. How it is done: Cells were treated with different agents for 48 hours and assessed for MOMP using tetramethylrhodamine methyl ester [TMRM] (Life Technologies). TMRM was directly added to the cell cultures at 100 nmol/1 concentrations and incubated at 37° C. in the dark for 15 minutes. At the end of the incubation, cells were washed twice with cold PBS containing 2% FBS and analyzed. The cells were washed for fluorescence (FL2) and analyzed by BD Accuri, the C6 flow cytometer and its software. Data from at least 20,000 events per sample were collected and analyzed. TMRM-negative (%) cells were calculated to determine % MOMP.

Series [7] deals with NF-κB reporter in HEK293 cells expressing MYD88 L265P. Kind of series: NF-κB luciferase reporter assay. The settings on record: 24 hours; 0.5 μmol/l. The series is classed as cell-based, human. How it is done: HEK293 cells expressing MYD88 L265P were generated as described elsewhere (Ansell et al., Blood Cancer J, 4:e183, 2014). Cells were transiently transfected with 0.5 ng Renilla and 0.25 μg of a pNFκB-luciferase reporter plasmid/1.0×10^6 cells. b-AP15 was added to each well at the indicated doses; after 24 hours, luciferase activity was measured in cell extracts and normalized against Renilla with the Dual Luciferase Kit (Promega, Madison, Wis.).
(In general: In a reporter assay the amount or activity of a reporter protein is the signal.)

Entries after “also recorded” stand apart in the source; their conditions may differ.

T1 sequence (Q99436 44-277): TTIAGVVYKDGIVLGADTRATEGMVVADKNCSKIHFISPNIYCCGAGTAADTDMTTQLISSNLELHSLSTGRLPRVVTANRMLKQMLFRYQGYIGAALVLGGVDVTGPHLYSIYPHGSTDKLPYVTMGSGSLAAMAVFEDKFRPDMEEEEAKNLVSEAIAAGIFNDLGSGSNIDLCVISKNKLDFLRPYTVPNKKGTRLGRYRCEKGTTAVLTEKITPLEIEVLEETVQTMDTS

Consider `C=CC(=O)N1C/C(=C\c2ccc([N+](=O)[O-])cc2)C(=O)/C(=C/c2ccc([N+](=O)[O-])cc2)C1` [b-AP15], for which the values for the IC50 in series [1] and in series [2] were 0.003 µM and 0.057 µM, respectively. Further, in series [3], the trypsin-like proteasomal activity entry was “no change in trypsin-like activity”. The “WM cells experiencing apoptosis” value in series [4] is recorded as “approximately 50%”. The “apoptosis (annexin-V positivity)” value in series [5] (0.5 μmol/l, 12 hours) is “Significant annexin-V positivity; also recorded: Robust apoptotic cell death”. The “cells undergoing total loss of viability” value in series [5] (1 μmol/l) was more than 90%. In addition, the MOMP entry in series [6] is given as “significantly induced”. For the same compound, the “NF-κB luciferase reporter activity” value in series [7] is “significantly reduced; also recorded: significant reduction”.

Usually IC50 stands for the concentration at which inhibition is half-maximal.

Source of the values: US20170128518A1, “METHODS AND MATERIALS FOR IDENTIFYING AND TREATING MAMMALS RESISTANT TO PROTEASOME INHIBITOR TREATMENTS” (Mayo Foundation for Medical Education and Research, priority 2014, published 2017).
